Assay results from PMC8900595 (Journal of medicinal chemistry, 2021).

How the values were obtained:
WSN-PB2-Nanoluc virus [1] = assay type: cell-based, influenza A virus
H3N2 (A/Wyoming/03/2003) = assay type: cell-based, influenza A virus
A/WSN/33 [2] = test: microbe, parasite or virus in culture; assay type: cell-based, influenza A virus
[3] = test system: H1N1 (A/California/07/2009); assay type: cell-based, influenza A virus
A549 cells = settings: human
A/WSN/33 [4] = assay type: cell-based, influenza A virus
A/WSN/33 [5] = assay type: cell-based, influenza A virus; remark: listed apart in the source
[6] = test system: HA-mediated membrane fusion; assay type: cell-based, influenza A virus; settings: pH 5
H1N1 A/WSN/1933 virus = assay type: cell-based, influenza A virus
[7] = test system: poly(A) RNA and GAPDH mRNA; test: RNA-FISH and smRNA-FISH of cellular RNA in uninfected cells; assay type: cell-based, human; settings: 1 μM
H3N2 A/Panama/1999 = assay type: cell-based, influenza A virus
WSN-PB2-Nanoluc virus [8] = test: microbe, parasite or virus in culture; assay type: cell-based; settings: Influenza A virus, HCT-116, read-out: IC50, Nanoluc levels
influenza virus = assay type: cell-based
[9] = test system: H5N1 A/Vietnam/1203/2004 HaLo virus; assay type: cell-based, influenza A virus; settings: 25 μM, MOI = 0.01, 24 h, A549 cells

Molecule	activity under the assay conditions (WSN-PB2-Nanoluc virus [1])	number of infected cells (H3N2 (A/Wyoming/03/2003))	selectivity index (A/WSN/33 [2])	number of infected cells [3]	Cytotoxicity (MTT) CC10 (A549 cells) [µM]	other results
O=S(=O)(c1cc(Cl)ccc1Cl)N1CCc2cc(Cl)ccc21 [compound 49, 5-Chloro-1-((2,5-dichlorophenyl)sulfonyl)indoline]	inactive					
CCN(c1ccc(Cl)cc1C)S(=O)(=O)c1cc(Cl)ccc1Cl [compound 12, 2,5-Dichloro-N-(4-chloro-2-methylphenyl)-N-ethylbenzenesulfonamide]		more effectively decreased infection	>147	robustly reduced the number of cells infected	>5	antiviral activity as described in SAR text (A/WSN/33 [2]): generally more potent
C#CCCC1(CCOC(=O)Cc2ccc(N(CC)S(=O)(=O)c3cc(Cl)ccc3Cl)cc2)N=N1 [compound 53, 2-(3-(But-3-yn-1-yl)-3H-diazirin-3-yl)ethyl 2-(4-((2,5-Dichloro-Nethylphenyl)sulfonamido)phenyl)acetate]	not active					
C#CCN(c1cccc(N=[N+]=[N-])c1)S(=O)(=O)c1cc(Cl)ccc1Cl [compound 54, N-(3-Azidophenyl)-2,5-dichloro-N-(prop-2-yn-1-yl)benzenesulfonamide]	retained robust activity					
C#CCCC1(CCN(c2ccc(Cl)cc2C)S(=O)(=O)c2cc(Cl)ccc2Cl)N=N1 [compound 52, N-(2-(3-(But-3-yn-1-yl)-3H-diazirin-3-yl)ethyl)-2,5-dichloro-N-(4-chloro-2-methylphenyl)benzenesulfonamide]	not active					
CCN(c1ccc(F)cc1F)S(=O)(=O)c1cc(Cl)ccc1Cl [compound 21, 2,5-Dichloro-N-(2,4-difluorophenyl)-N-ethylbenzenesulfonamide]		slightly inhibited the number of infected cells	>96	robustly reduced the number of cells infected	>5	antiviral activity as described in SAR text (A/WSN/33 [2]): equipotent to compound 1
2,5-Dichloro-N-(4-chloro-2-methylphenyl)benzamide [compound 51]	inactive					
CCN(c1ccccc1C)S(=O)(=O)c1cc(Cl)ccc1Cl [compound 1, 2,5-dichloro-N-ethyl-N-(o-tolyl)-benzenesulfonamide]		slightly inhibited the number of infected cells	>625	robustly reduced the number of cells infected	>25	viral M mRNA expression, compound added after infection (A/WSN/33 [4]): robustly expressed; viral M mRNA expression, compound added prior to infection (A/WSN/33 [4]): expressed at very low levels; viral mRNA levels (HA, NS1, M1, M2) by qPCR (A/WSN/33 [4]): reduced levels of viral mRNAs; viral mRNA levels (M, HA, NS) by smRNA-FISH (A/WSN/33 [4]): reduced influenza virus (A/WSN/33) mRNA levels; antiviral activity when used shortly post-infection (western blot NP, M1) (A/WSN/33 [5]): lack of antiviral activity; viral protein levels (western blot) (A/WSN/33 [5]): reduced levels of influenza virus proteins; inhibition of fusion (hemolysis) [6]: robust inhibition of fusion; reduction of viral titers (H1N1 A/WSN/1933 virus): four; effect on cellular bulk poly(A) RNA or GAPDH [7]: did not have a significant effect; reduction of viral titers (H3N2 A/Panama/1999): four; IC50 (WSN-PB2-Nanoluc virus [8]): 0.0168 µM; viral mRNA levels in primary cells (influenza virus): robustly decreased viral mRNA levels; reduction of viral titers [9]: four
